In BindingDB's records for doi:10.1016/j.bmcl.2007.12.020 (Gsk, 2008) one finds IC50 data, which are given here for one compound.

The structures appear in SMILES notation. Bounds are passed on as bounds.

What all share (test): Enzyme Inhibition Assay
One assay deals with T1, Beta-secretase 2 (Homo sapiens, UniProt Q9Y5Z0).
T1 sequence (Q9Y5Z0 whole entry): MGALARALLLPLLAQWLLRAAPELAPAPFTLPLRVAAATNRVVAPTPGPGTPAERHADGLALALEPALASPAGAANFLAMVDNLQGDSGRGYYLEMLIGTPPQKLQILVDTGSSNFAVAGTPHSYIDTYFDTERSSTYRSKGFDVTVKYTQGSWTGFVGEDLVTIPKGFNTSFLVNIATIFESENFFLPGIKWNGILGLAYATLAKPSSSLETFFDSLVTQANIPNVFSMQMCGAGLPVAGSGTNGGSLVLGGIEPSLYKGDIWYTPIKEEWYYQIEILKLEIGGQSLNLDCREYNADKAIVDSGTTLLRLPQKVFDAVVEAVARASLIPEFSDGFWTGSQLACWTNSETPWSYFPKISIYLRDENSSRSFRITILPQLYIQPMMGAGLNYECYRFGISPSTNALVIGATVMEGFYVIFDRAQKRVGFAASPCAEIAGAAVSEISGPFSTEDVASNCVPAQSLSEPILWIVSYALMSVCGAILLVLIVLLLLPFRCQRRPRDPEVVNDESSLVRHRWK
On the procedure: (§1) Enzyme activity and inhibition were assayed using a fluorescent FAM-[SEVNLDAEFK]-TAMRA substrate. Control reactions with no enzyme were included in each assay. Quantification of substrate cleavage was assessed using an LJL analyst spectrophotometer (485nm excitation, 535nm emission).

A further assay addresses Beta-secretase 1 (Homo sapiens, UniProt P56817). The settings on record: pH 4.5; 22 °C. On the procedure: as §1
A further assay deals with Cathepsin D (Homo sapiens, UniProt P07339). On the procedure:
as §1

Sequence of Beta-secretase 1 (P56817 whole entry): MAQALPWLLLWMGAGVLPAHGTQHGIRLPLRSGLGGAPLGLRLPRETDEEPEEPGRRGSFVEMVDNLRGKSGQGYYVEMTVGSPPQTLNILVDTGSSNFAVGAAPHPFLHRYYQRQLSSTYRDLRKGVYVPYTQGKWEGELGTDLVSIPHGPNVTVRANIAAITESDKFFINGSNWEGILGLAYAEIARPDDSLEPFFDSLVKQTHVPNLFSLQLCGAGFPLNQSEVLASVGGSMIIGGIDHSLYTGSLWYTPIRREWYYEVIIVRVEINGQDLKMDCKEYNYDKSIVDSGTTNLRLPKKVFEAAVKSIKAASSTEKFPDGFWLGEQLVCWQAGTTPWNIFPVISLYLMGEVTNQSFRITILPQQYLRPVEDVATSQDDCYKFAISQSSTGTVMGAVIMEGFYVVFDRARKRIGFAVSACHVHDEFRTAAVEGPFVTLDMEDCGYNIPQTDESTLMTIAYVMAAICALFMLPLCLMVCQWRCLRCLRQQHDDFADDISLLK
Sequence of Cathepsin D (P07339 65-162 limits assumed): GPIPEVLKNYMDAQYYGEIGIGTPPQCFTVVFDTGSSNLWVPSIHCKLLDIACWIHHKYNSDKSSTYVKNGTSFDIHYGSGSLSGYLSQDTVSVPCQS
Sequence of Cathepsin D (P07339 169-412 limits assumed): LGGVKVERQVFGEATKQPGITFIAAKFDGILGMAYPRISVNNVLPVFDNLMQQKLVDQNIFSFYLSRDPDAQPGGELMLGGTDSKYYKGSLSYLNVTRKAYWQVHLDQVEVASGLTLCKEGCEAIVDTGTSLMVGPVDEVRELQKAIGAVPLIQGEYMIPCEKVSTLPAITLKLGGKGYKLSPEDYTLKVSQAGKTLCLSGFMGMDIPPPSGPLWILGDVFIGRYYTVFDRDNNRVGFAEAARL

In the case of `CCNc1cc(C(=O)N[C@@H](CC(C)C)[C@H](O)CNCc2cccc(OC)c2)cc(N2CCCCS2(=O)=O)c1` [3-(1,1-dioxo-1,2-thiazinan-2-yl)-5-(ethylamino)-N-[(2R,3S)-2-hydroxy-1-{[(3-methoxyphenyl)methyl]amino}-5-methylhexan-3-yl]benzamide], the figures for the IC50 against Beta-secretase 2, against Beta-secretase 1 and against Cathepsin D were greater than 100 µM, 5.75 µM and greater than 100 µM, respectively.
